According to publication PMC7093396 (Scientific Reports, 2020):
Values after ≈ are worked out from the molar mass of the structure shown.

Experiments:
[1] = tested on: T1, E. coli BW25113; assay: microbe, parasite or virus in culture; design: Broth dilution growth at OD600 in Ca/HEPES:YPSC, 29 °C, Gompertz-fit MIC; details: Escherichia coli, BW25113, 24 h; Ca/HEPES:YPSC, 29 °C, non-standard MIC
T1 construct: BW25113
Method: Serial antibiotic dilutions in 100 µL Ca/HEPES were made along the rows of 96-well plates including controls without antibiotic. E. coli BW25113 cells from an overnight culture were washed and re-suspended in Ca/HEPES buffer to a final OD600 of 0.024. Aliquots of 50 µL of this E. coli suspension and 50 µL of a fresh YPSC broth were added to the wells of these plates and the blank measured at 600 nm. Final OD600 measurements were carried out after an incubation of 24 hours at 29 °C under shaking conditions. Data is shown as percentage of growth and plotted in a graph against the logarithm of antibiotic concentration. MIC values were calculated by fitting data with a Gompertz modified equation[15] (using GraphPad Prism 5). […] Antibiotics characterized by a high B. bacteriovorus/E. coli MIC ratio, such as amikacin, kanamycin, gentamicin and aztreonam (Table 1), are of particular interest for a B. bacteriovorus based co-therapy against E. coli infections.

[2] = tested on: T2, B. bacteriovorus HD100; assay: microbe, parasite or virus in culture; design: species or system B. bacteriovorus HD100 with E. coli BW25113 prey; Predatory growth on E. coli prey, OD600 reduction, Gompertz-fit MIC by linear regression at PPR 0.02; details: Escherichia coli, HD100, 24 h; co-culture with E. coli BW25113 prey, theoretical MIC at PPR 0.02
T2 construct: HD100
Method: Two-fold serial dilutions of antibiotics (Table S6) were made along the rows of 96-well plates (BRANDplates pureGrade^TM S, no. 781662) in 100 µL Ca/HEPES buffer (5.94 g/L HEPES free acid, 0.284 g/L calcium chloride 2·H2O, adjusted to pH 7.6 with NaOH), including controls (no antibiotic present). B. bacteriovorus cultures were diluted by a factor of 25 in Ca/HEPES buffer. B. bacteriovorus two-fold serial dilutions were prepared in a new sterile 96-well plate along the column line (using as diluent a suspension of heat-inactivated B. bacteriovorus), including controls (no viable B. bacteriovorus present). Fifty µL of these dilution series were transferred from each well of the latter plate to the corresponding wells of plates with antibiotic dilution series. Subsequently, 50 µL of an E. coli BW25113 overnight culture grown in YPSC broth was added to each plate well. At this point, which corresponds to time zero, the blank was determined by measuring the OD600 of cell suspensions in a plate reader (TECAN Infinite 200 Pro). Final OD600 measurements were carried out after an incubation of 24 hours at 29 °C under shaking conditions (300 rpm, 3 mm throw). The number of E. coli cells was estimated by reading the OD600 of the overnight culture prior to the beginning of the assay. The number of viable B. bacteriovorus cells was estimated by plating in double layer YPSC agar plates as explained elsewhere. Following an incubation time of three days at 29 °C, the number of B. bacteriovorus cells in the initial inoculation culture was estimated by counting plaque forming units (PFU). Enumeration of B. bacteriovorus by plaques count ensures that only viable cells are counted and, in our experience, is preferable over other methods based on microscopy and/or fluorescence. Pictures of plaques were acquired by the aid of a plaque visualization chamber, specially developed in this study for this purpose (Fig. S9). All absorbance values were subtracted of the related blanks. Then, absorbance values of test samples (B. bacteriovorus co-cultures) were subtracted from the control values (E. coli without B. bacteriovorus) and plotted in graph against the logarithm of antibiotic concentrations. The resulting Δ curve is an indication of B. bacteriovorus growth. Data was expressed as percentage of growth and plotted in a graph of log(inhibitor) vs. response. The minimal inhibitory concentration (MIC) value was defined as the concentration of antibiotic that prevent B. bacteriovorus growth and were calculated by fitting B. bacteriovorus growth inhibition curves with a Gompertz modified equation[15] (using GraphPad Prism 5). […] Direct cell growth measurements of B. bacteriovorus upon prey bacteria can be estimated by reduction of the optical density at 600 nm (OD600) (i.e. the loss of culture turbidity by B. bacteriovorus-induced lysis of prey cells). In this study, we designed a 96-well based method for the determination of antibiotic MICs for B. bacteriovorus. B. bacteriovorus HD100 cells were added to an E. coli culture and the reduction of OD600 measured in absence and presence of different concentrations of antibiotics. Assays were conducted in a solution of Ca/HEPES buffer and the exhausted medium transferred with the E. coli overnight culture and the B. bacteriovorus dilution. Therefore, E. coli cells were in the stationary phase and their growth during the assays was negligible. […] MIC values are dependent on the initial PPR used in the assay, as standard MIC assays are dependent on the initial bacterial concentration. However, B. bacteriovorus numbers and therefore, the initial PPR can be estimated reliably only after the assay by plating in double layer agar plates. The relation between initial PPR and MIC values was then investigated by adding different numbers of B. bacteriovorus cells to the fixed number of E. coli prey cells in parallel replicated experiments (on different rows of the same plate containing replicated antibiotic serial dilutions). […]

Structure (SMILES) | MIC [1] | MIC [2]
C[C@H]1COc2c(N3CCN(C)CC3)c(F)cc3c(=O)c(C(=O)O)cn1c23 [Levofloxacin] | 0.064 µg/mL (≈ 0.177 µM) | 0.23 ± 0.02 µg/mL (≈ 0.636 µM)
CCC[C@@H]1C[C@@H](C(=O)N[C@@H]([C@H]2O[C@H](SC)[C@H](O)[C@@H](O)[C@H]2O)[C@@H](C)O)N(C)C1 [Lincomycin] |  | 7.9 ± 0.9 µg/mL (≈ 19.4 µM)
COc1cc(Cc2cnc(N)nc2N)cc(OC)c1OC [TMP, trimethoprim] |  | 223 ± 24 µg/mL (≈ 768 µM)
NC[C@H]1O[C@H](O[C@H]2[C@H](O)[C@@H](O[C@H]3O[C@H](CO)[C@@H](O)[C@H](N)[C@H]3O)[C@H](N)C[C@@H]2N)[C@H](O)[C@@H](O)[C@@H]1O [Kanamycin] | 0.081 µg/mL (≈ 0.167 µM) | 0.69 ± 0.06 µg/mL (≈ 1.42 µM)
NCC[C@H](O)C(=O)N[C@@H]1C[C@H](N)[C@@H](O[C@H]2O[C@H](CN)[C@@H](O)[C@H](O)[C@H]2O)[C@H](O)[C@H]1O[C@H]1O[C@H](CO)[C@@H](O)[C@H](N)[C@H]1O [Amikacin] | 0.06 µg/mL (≈ 0.102 µM) | 0.7 ± 0.02 µg/mL (≈ 1.2 µM)
CN[C@H](CC(C)C)C(=O)N[C@H]1C(=O)N[C@@H](CC(N)=O)C(=O)N[C@H]2C(=O)N[C@H]3C(=O)N[C@H](C(=O)N[C@H](C(=O)O)c4cc(O)cc(O)c4-c4cc3ccc4O)[C@H](O)c3ccc(c(Cl)c3)Oc3cc2cc(c3O[C@@H]2O[C@H](CO)[C@@H](O)[C@H](O)[C@H]2O[C@H]2C[C@](C)(N)[C@H](O)[C@H](C)O2)Oc2ccc(cc2Cl)[C@H]1O [Vancomycin] |  | 16 ± 1 µg/mL (≈ 11 µM)
CN(C)c1cc(NC(=O)CNC(C)(C)C)c(O)c2c1C[C@H]1C[C@H]3[C@H](N(C)C)C(O)=C(C(N)=O)C(=O)[C@@]3(O)C(O)=C1C2=O [Tigecycline] | 2.3 µg/mL (≈ 3.93 µM) | 0.59 ± 0.01 µg/mL (≈ 1.01 µM)
O=C(O)c1cn(C2CC2)c2cc(N3CCNCC3)c(F)cc2c1=O [Ciprofloxacin] | 0.13 µg/mL (≈ 0.392 µM) | 0.31 ± 0.04 µg/mL (≈ 0.936 µM)
CNC(C)[C@@H]1CC[C@@H](N)[C@@H](O[C@H]2[C@H](O)[C@@H](O[C@H]3OC[C@](C)(O)[C@H](NC)[C@H]3O)[C@H](N)C[C@@H]2N)O1 (stereo partly shown) [Gentamicin] | 0.0084 µg/mL (≈ 0.0176 µM) | 0.06 µg/mL (≈ 0.126 µM)

The next lines start with the values.

MIC [1] | MIC [2] | Structure (SMILES)
4.8 µg/mL (≈ 10.8 µM) | 1.7 ± 0.2 µg/mL (≈ 3.83 µM) | CN(C)[C@@H]1C(O)=C(C(N)=O)C(=O)[C@@]2(O)C(O)=C3C(=O)c4c(O)cccc4[C@@](C)(O)[C@H]3C[C@@H]12 [Tetracycline]
122 µg/mL (≈ 236 µM) | 2.5 ± 0.5 µg/mL (≈ 4.83 µM) | CCN1CCN(C(=O)N[C@@H](C(=O)N[C@@H]2C(=O)N3[C@@H]2SC(C)(C)[C@@H]3C(=O)O)c2ccccc2)C(=O)C1=O [Piperacillin]
19 µg/mL (≈ 56.8 µM) | 3.4 ± 0.5 µg/mL (≈ 10.2 µM) | CC1(C)S[C@@H]2[C@H](NC(=O)Cc3ccccc3)C(=O)N2[C@H]1C(=O)O [Penicillin G]
5.7 µg/mL (≈ 13.1 µM) | 41 ± 4 µg/mL (≈ 94.2 µM) | C[C@H]1[C@H](NC(=O)/C(=N\OC(C)(C)C(=O)O)c2csc(N)n2)C(=O)N1S(=O)(=O)O [Aztreonam]
10 µg/mL (≈ 27.2 µM) | 18 ± 2 µg/mL (≈ 48.9 µM) | N[C@@H](C(=O)N[C@@H]1C(=O)N2C(C(=O)O)=C(Cl)CS[C@H]12)c1ccccc1 [Cefaclor]
5.4 µg/mL (≈ 15.5 µM) | 1.3 ± 0.2 µg/mL (≈ 3.72 µM) | CC1(C)S[C@@H]2[C@H](NC(=O)[C@H](N)c3ccccc3)C(=O)N2[C@H]1C(=O)O [Ampicillin]
0.14 µg/mL (≈ 0.365 µM) | 0.42 ± 0.06 µg/mL (≈ 1.1 µM) | C[C@@H](O)[C@H]1C(=O)N2C(C(=O)O)=C(S[C@@H]3CN[C@H](C(=O)N(C)C)C3)[C@H](C)[C@H]12 [Meropenem]
19 µg/mL (≈ 34.8 µM) | 7.8 ± 0.4 µg/mL (≈ 14.3 µM) | CC(C)(O/N=C(\C(=O)N[C@@H]1C(=O)N2C(C(=O)[O-])=C(C[n+]3ccccc3)CS[C@H]12)c1csc(N)n1)C(=O)O [Ceftazidime]
10 µg/mL (≈ 30.9 µM) | 0.16 µg/mL (≈ 0.495 µM) | O=C(N[C@H](CO)[C@H](O)c1ccc([N+](=O)[O-])cc1)C(Cl)Cl [Chloramphenicol]
2 µg/mL (≈ 4.4 µM) | 0.51 ± 0.07 µg/mL (≈ 1.12 µM) | Cc1nnc(SCC2=C(C(=O)O)N3C(=O)[C@@H](NC(=O)Cn4cnnn4)[C@H]3SC2)s1 [Cefazolin]
0.6 µg/mL (≈ 0.929 µM) | 1.3 ± 0.3 µg/mL (≈ 2.01 µM) | CCN1CCN(C(=O)N[C@@H](C(=O)N[C@@H]2C(=O)N3C(C(=O)O)=C(CSc4nnnn4C)CS[C@H]23)c2ccc(O)cc2)C(=O)C1=O [Cefoperazone]
